In this test the test system is B6C3F1 mice, intracerebral ependymoblastoma, median survival T/C. As to the kind of experiment: NCI In Vivo Anticancer Drug Screen. Data for tumor model Ependymoblastoma (intracerebral) in B6C3F1 mice. The settings on record: endpoint: median survival time, higher = longer survival. On the procedure: The antitumor activity of compounds was measured in mice bearing transplantable tumors. Survival or tumor size were measured and the results are expressed as the measurement made in the treated group (T) divided by the measurement made in the vehicle treated control group (C). The tumor model used in this assay is Ependymoblastoma (intracerebral) in B6C3F1 mice

The mark [1] stands for this setting: dose: 16.0 mg/kg/injection, schedule: Q01DX005 (ip), vehicle: saline.
[2] abbreviates: dose: 32.0 mg/kg/injection, schedule: Q01DX005 (ip), vehicle: saline.
[3] abbreviates: dose: 8.0 mg/kg/injection, schedule: Q01DX005 (ip), vehicle: Klucel (hydroxypropylcellulose) (HPC).
The mark [4] stands for this setting: dose: 16.0 mg/kg/injection, schedule: Q01DX005 (ip), vehicle: Klucel (hydroxypropylcellulose) (HPC).
Setting [5] is: dose: 32.0 mg/kg/injection, schedule: Q01DX005 (ip), vehicle: Klucel (hydroxypropylcellulose) (HPC).
The mark [6] stands for this setting: dose: 64.0 mg/kg/injection, schedule: Q01DX005 (ip), vehicle: Klucel (hydroxypropylcellulose) (HPC).

Our source for the T/C values is PubChem BioAssay AID226 (DTP/NCI, 2004).

Several values for one entry are separate records, joined by “and”; a condition that tells them apart may be missing. Equal values may be shown once. Toxic doses and inconclusive results are not listed.

`CCOC(OCC)C(=O)OCC(=O)[C@]1(O)Cc2c(O)c3c(c(O)c2[C@@H](OC2CC(N)C(O)C(C)O2)C1)C(=O)c1c(OC)cccc1C3=O` (stereo partly drawn): the T/C was 103 % of control (dose: 0.12 mg/kg/injection, schedule: Q01DX005 (ip), vehicle: water); 102 % of control and 113 % of control (dose: 0.25 mg/kg/injection, schedule: Q01DX005 (ip), vehicle: water); 101 % of control and 105 % of control (dose: 0.5 mg/kg/injection, schedule: Q01DX005 (ip), vehicle: water); 98 % of control and 109 % of control (dose: 1.0 mg/kg/injection, schedule: Q01DX005 (ip), vehicle: water); 101 % of control and 103 % of control (dose: 2.0 mg/kg/injection, schedule: Q01DX005 (ip), vehicle: water); 109 % of control (dose: 4.0 mg/kg/injection, schedule: Q01DX005 (ip), vehicle: water).
Consider `COc1cc2cc3c4cc(OC)c(OC)cc4cc[n+]3c(C)c2cc1OC` (tested in a mixture with another compound), for which the T/C under setting [1] is 94 % of control and 98 % of control and 111 % of control; the T/C under setting [2] is 100 % of control (2×) and 120 % of control; the T/C (dose: 64.0 mg/kg/injection, schedule: Q01DX005 (ip), vehicle: saline) was 102 % of control and 105 % of control and 118 % of control; the T/C (dose: 128.0 mg/kg/injection, schedule: Q01DX005 (ip), vehicle: saline) is 104 % of control and 109 % of control; the T/C (dose: 256.0 mg/kg/injection, schedule: Q01DX005 (ip), vehicle: saline) was 106 % of control.
On to `CC1CN1C(=O)NCCCCCCNC(=O)N1CC1C` (stereo not drawn), for which the T/C is 105 % of control (dose: 1.25 mg/kg/injection, schedule: Q01DX005 (ip), vehicle: Klucel (hydroxypropylcellulose) (HPC)); 108 % of control (dose: 2.5 mg/kg/injection, schedule: Q01DX005 (ip), vehicle: Klucel (hydroxypropylcellulose) (HPC)); 120 % of control (dose: 5.0 mg/kg/injection, schedule: Q01DX005 (ip), vehicle: Klucel (hydroxypropylcellulose) (HPC)); 109 % of control (dose: 10.0 mg/kg/injection, schedule: Q01DX005 (ip), vehicle: Klucel (hydroxypropylcellulose) (HPC)).
As to `O=C1C(NCC(O)CO)=C(N2CC2)C(=O)C(NCC(O)CO)=C1N1CC1` (stereo not drawn), the T/C is, setting by setting: (dose: 0.5 mg/kg/injection, schedule: Q01DX005 (ip), vehicle: saline) 117 % of control; (dose: 1.0 mg/kg/injection, schedule: Q01DX005 (ip), vehicle: saline) 116 % of control.
For the compound `O=CC(NC(=O)N(CCCl)N=O)C(O)C(O)C(O)CO` (stereo not drawn), the T/C (dose: 0.12 mg/kg/injection, schedule: Q01DX005 (ip), vehicle: saline) was 97 % of control and 99 % of control and 108 % of control; the T/C (dose: 0.13 mg/kg/injection, schedule: Q01DX005 (ip), vehicle: saline) was 91 % of control and 93 % of control; the T/C (dose: 1.0 mg/kg/injection, schedule: Q01DX001 (ip), vehicle: Klucel (hydroxypropylcellulose) (HPC)) was 93 % of control and 104 % of control and 107 % of control; the T/C (dose: 1.0 mg/kg/injection, schedule: Q01DX005 (ip), vehicle: Klucel (hydroxypropylcellulose) (HPC)) was 108 % of control; the T/C (dose: 2.0 mg/kg/injection, schedule: Q01DX001 (ip), vehicle: Klucel (hydroxypropylcellulose) (HPC)) is 99 % of control and 103 % of control and 108 % of control; the T/C (dose: 2.0 mg/kg/injection, schedule: Q01DX005 (ip), vehicle: Klucel (hydroxypropylcellulose) (HPC)) is 119 % of control. Moreover, the T/C reads like this: (dose: 3.13 mg/kg/injection, schedule: Q01DX001 (ip), vehicle: saline) 115 % of control; (dose: 4.0 mg/kg/injection, schedule: Q01DX001 (ip), vehicle: Klucel (hydroxypropylcellulose) (HPC)) 100 % of control and 107 % of control and 108 % of control; (dose: 4.0 mg/kg/injection, schedule: Q01DX009 (ip), vehicle: saline) 195 % of control; (dose: 6.25 mg/kg/injection, schedule: Q01DX001 (ip), vehicle: saline) 122 % of control; (dose: 8.0 mg/kg/injection, schedule: Q01DX001 (ip), vehicle: Klucel (hydroxypropylcellulose) (HPC)) 103 % of control and 110 % of control and 113 % of control; (dose: 16.0 mg/kg/injection, schedule: Q01DX001 (ip), vehicle: Klucel (hydroxypropylcellulose) (HPC)) 111 % of control and 115 % of control and 119 % of control. Further, where the note is “dose: 25.0 mg/kg/injection, schedule: Q01DX001 (ip), vehicle: saline”, the T/C is 157 % of control.
`Cc1c2ccncc2c(C)c2c1[nH]c1ccccc12`: the T/C (dose: 128.0 mg/kg/injection, schedule: Q01DX001 (ip), vehicle: Klucel (hydroxypropylcellulose) (HPC)) is 112 % of control.
In the case of `COc1ccc2cc1Oc1ccc(cc1)C[C@H]1c3cc(c(OC)cc3CCN1C)Oc1c(OC)c(OC)cc3c1[C@H](C2)N(C)CC3`, the T/C was 100 % of control (dose: 50.0 mg/kg/injection, schedule: Q01DX005 (ip), vehicle: Klucel (hydroxypropylcellulose) (HPC)); 88 % of control (dose: 100.0 mg/kg/injection, schedule: Q01DX005 (ip), vehicle: Klucel (hydroxypropylcellulose) (HPC)); 108 % of control (dose: 200.0 mg/kg/injection, schedule: Q01DX005 (ip), vehicle: Klucel (hydroxypropylcellulose) (HPC)); 91 % of control (dose: 400.0 mg/kg/injection, schedule: Q01DX005 (ip), vehicle: Klucel (hydroxypropylcellulose) (HPC)).
As for `C[n+]1c2ccccc2nc2c(N)cc(N)cc21`, the T/C is 100 % of control and 101 % of control (dose: 4.0 mg/kg/injection, schedule: Q01DX005 (ip), vehicle: saline); 101 % of control and 102 % of control (dose: 8.0 mg/kg/injection, schedule: Q01DX005 (ip), vehicle: saline); 103 % of control and 108 % of control under setting [1]; 103 % of control and 114 % of control under setting [2].
On to `COc1ccc2c(c1)CCC(c1ccccc1)=C2c1ccc(OCCN2CCCC2)cc1`, for which the T/C is, setting by setting: under setting [3], 106 % of control; (dose: 12.0 mg/kg/injection, schedule: Q01DX005 (ip), vehicle: saline with Tween-80) 108 % of control; under setting [4], 106 % of control; (dose: 24.0 mg/kg/injection, schedule: Q01DX005 (ip), vehicle: saline with Tween-80) 110 % of control; under setting [5], 110 % of control; (dose: 48.0 mg/kg/injection, schedule: Q01DX005 (ip), vehicle: saline with Tween-80) 104 % of control. Further, the T/C is, setting by setting: under setting [6], 101 % of control; (dose: 96.0 mg/kg/injection, schedule: Q01DX005 (ip), vehicle: saline with Tween-80) 107 % of control.
Regarding `COc1cc(NC(=O)CN(CCCl)CCCl)cc(OC)c1OC`, the T/C runs as follows: (dose: 25.0 mg/kg/injection, schedule: Q01DX009 (ip), vehicle: saline with Tween-80) 113 % of control; (dose: 50.0 mg/kg/injection, schedule: Q01DX009 (ip), vehicle: saline with Tween-80) 113 % of control.
In the case of `CN(Cc1cnc2nc(N)nc(N)c2n1)c1ccc(C(=O)N[C@@H](CCC(=O)O)C(=O)O)cc1`, the T/C (dose: 4.0 mg/kg/injection, schedule: Q01DX009 (ip), vehicle: saline with Tween-80) was 118 % of control; the T/C (dose: 4.0 mg/kg/injection, schedule: Q04DX003 (ip), vehicle: saline with Tween-80) is 118 % of control; the T/C (dose: 8.0 mg/kg/injection, schedule: Q01DX009 (ip), vehicle: saline with Tween-80) was 106 % of control; the T/C (dose: 8.0 mg/kg/injection, schedule: Q04DX003 (ip), vehicle: saline with Tween-80) was 110 % of control; the T/C (dose: 16.0 mg/kg/injection, schedule: Q01DX009 (ip), vehicle: saline with Tween-80) is 111 % of control; the T/C (dose: 16.0 mg/kg/injection, schedule: Q04DX003 (ip), vehicle: saline with Tween-80) is 98 % of control. The T/C (dose: 32.0 mg/kg/injection, schedule: Q01DX009 (ip), vehicle: saline with Tween-80) was 109 % of control.
With `NS(=O)(=O)c1cc2c(cc1Cl)NC=NS2(=O)=O`, the T/C is 109 % of control (dose: 37.5 mg/kg/injection, schedule: Q01DX005 (ip), vehicle: Klucel (hydroxypropylcellulose) (HPC)); 96 % of control (dose: 75.0 mg/kg/injection, schedule: Q01DX005 (ip), vehicle: Klucel (hydroxypropylcellulose) (HPC)); 90 % of control (dose: 150.0 mg/kg/injection, schedule: Q01DX005 (ip), vehicle: Klucel (hydroxypropylcellulose) (HPC)); 107 % of control (dose: 300.0 mg/kg/injection, schedule: Q01DX005 (ip), vehicle: Klucel (hydroxypropylcellulose) (HPC)); 102 % of control (dose: 600.0 mg/kg/injection, schedule: Q01DX005 (ip), vehicle: Klucel (hydroxypropylcellulose) (HPC)).
For the compound `C#C[C@]1(O)CC[C@H]2[C@@H]3CCc4cc(O)ccc4[C@H]3CC[C@@]21C`, the T/C is, setting by setting: under setting [3], 97 % of control and 103 % of control; under setting [4], 98 % of control and 109 % of control; under setting [5], 100 % of control and 106 % of control; under setting [6], 97 % of control and 119 % of control; (dose: 128.0 mg/kg/injection, schedule: Q01DX005 (ip), vehicle: Klucel (hydroxypropylcellulose) (HPC)) 104 % of control and 107 % of control; (dose: 256.0 mg/kg/injection, schedule: Q01DX005 (ip), vehicle: Klucel (hydroxypropylcellulose) (HPC)) 104 % of control and 124 % of control. For the same compound, the T/C (dose: 512.0 mg/kg/injection, schedule: Q01DX005 (ip), vehicle: Klucel (hydroxypropylcellulose) (HPC)) is 109 % of control and 111 % of control.
